Data reported in paper PMC9299836 (eLife, 2022).
“And” between values parts separate entries of the source, which are not always exact repeats. Identical values can stand only once.

How the values were obtained:
mGluR2 [1] = molecular target: mGluR2 (Mus musculus, UniProt Q14BI2, A548F); assay: Live-cell FRET, azi-CRD (cysteine-rich domain) sensor in HEK293T cells; settings: for Mean normalized FRET response, azi-CRD PAM DRC: glutamate + 0.5μM JNJ-42153605, maximal response normalized to 1mM glutamate
mGluR2 (Mus musculus, UniProt Q14BI2, A548F), sequence (Q14BI2 19-872 A548F): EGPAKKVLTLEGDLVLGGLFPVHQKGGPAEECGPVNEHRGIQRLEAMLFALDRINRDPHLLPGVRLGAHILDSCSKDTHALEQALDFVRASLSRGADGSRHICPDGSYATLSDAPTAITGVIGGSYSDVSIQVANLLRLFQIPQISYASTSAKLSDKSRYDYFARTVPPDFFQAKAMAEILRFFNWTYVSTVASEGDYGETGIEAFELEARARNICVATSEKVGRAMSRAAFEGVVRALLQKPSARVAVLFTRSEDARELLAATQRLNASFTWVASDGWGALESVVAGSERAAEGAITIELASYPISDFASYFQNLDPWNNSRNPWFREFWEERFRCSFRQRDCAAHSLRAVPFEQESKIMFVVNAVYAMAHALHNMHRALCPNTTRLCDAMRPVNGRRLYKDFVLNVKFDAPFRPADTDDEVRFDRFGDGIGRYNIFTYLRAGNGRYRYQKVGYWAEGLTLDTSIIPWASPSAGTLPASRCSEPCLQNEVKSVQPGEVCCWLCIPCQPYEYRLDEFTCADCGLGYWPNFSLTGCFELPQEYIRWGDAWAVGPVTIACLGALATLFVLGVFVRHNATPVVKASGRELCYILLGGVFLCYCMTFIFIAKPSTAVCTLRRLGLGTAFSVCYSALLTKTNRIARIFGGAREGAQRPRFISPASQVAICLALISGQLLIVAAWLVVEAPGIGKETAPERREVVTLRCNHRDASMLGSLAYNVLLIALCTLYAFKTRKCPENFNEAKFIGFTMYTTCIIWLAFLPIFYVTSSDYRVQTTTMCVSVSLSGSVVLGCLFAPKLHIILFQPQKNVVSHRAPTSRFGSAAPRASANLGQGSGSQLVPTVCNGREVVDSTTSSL

mGluR2 [2] = molecular target: T1, mGluR2 (Mus musculus, UniProt Q14BI2); assay: Live-cell FRET, SNAP-m2 (VFT domain) inter-subunit sensor in HEK293T cells; settings: for SNAP-m2 FRET response (PAM DRC) / SNAP-m2 FRET response (PAM DRC), Mean: Glutamate + 0.5μM JNJ-42153605; for SNAP-m2 FRET response (PAM DRC): individual cells, normalized to 1mM glutamate;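 for all read-outs here: apparent FRET efficiency from whole-membrane ROIs of single cells, corrected for donor bleed-through and background, ΔFRET as treatment minus pretreatment signal, recorded at room temperature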
T1 sequence (Q14BI2 19-872): as the sequence (Q14BI2 19-872 A548F) above, with F530A counted along it

mGluR2 [3] = molecular target: mGluR2 (Mus musculus, UniProt Q14BI2, INS715F); assay: Live-cell FRET, azi-ECL2 (7TM domain, extracellular loop 2) sensor in HEK293T cells; settings: for Mean normalized azi-ECL2 FRET response: glutamate + 0.5μM modulator, maximal response normalized to 1mM glutamate;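 for all read-outs here: Cy3/Cy5 click-labeled sensor, whole-membrane ROIs per cell, apparent FRET after bleed-through correction, ΔFRET as treatment minus pre-treatment signal, at room temperature, at least three biological replicates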
mGluR2 (Mus musculus, UniProt Q14BI2, INS715F), sequence (Q14BI2 with tags, fused parts or gaps INS715F): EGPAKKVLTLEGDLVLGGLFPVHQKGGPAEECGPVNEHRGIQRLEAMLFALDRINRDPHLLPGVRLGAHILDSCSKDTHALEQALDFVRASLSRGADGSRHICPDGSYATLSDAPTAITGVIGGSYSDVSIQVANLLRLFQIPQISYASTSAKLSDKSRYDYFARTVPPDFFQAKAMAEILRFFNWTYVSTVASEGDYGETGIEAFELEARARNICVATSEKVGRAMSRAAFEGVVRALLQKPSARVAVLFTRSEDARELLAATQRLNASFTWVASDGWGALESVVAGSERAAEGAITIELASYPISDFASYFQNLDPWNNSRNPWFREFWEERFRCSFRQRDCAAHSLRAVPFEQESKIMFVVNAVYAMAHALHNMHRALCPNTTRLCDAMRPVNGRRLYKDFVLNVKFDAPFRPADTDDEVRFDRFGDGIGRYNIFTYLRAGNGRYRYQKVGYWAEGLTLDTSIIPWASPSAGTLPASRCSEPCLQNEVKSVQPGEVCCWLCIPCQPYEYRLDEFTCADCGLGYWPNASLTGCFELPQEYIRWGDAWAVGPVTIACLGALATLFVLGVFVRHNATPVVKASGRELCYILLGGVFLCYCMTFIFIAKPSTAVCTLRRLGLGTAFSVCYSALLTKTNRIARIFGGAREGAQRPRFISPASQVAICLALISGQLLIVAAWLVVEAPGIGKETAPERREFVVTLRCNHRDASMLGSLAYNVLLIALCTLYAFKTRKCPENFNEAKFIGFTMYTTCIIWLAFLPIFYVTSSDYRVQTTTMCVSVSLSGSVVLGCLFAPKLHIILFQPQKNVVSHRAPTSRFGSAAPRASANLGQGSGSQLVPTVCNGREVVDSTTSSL

mGluR2 [4] = molecular target: T1, mGluR2; assay: Functional calcium imaging, SNAP-mGluR2 (no FLAG-tag) with chimeric G protein Gqo5 in HEK293T cells; format: cell-based; design: Full length mGluR2 construct with an amber codon (TAG) mutation of amino acid A548 (azi-CRD) or N-terminal SNAP-tag (SNAP-mGluR2); host or cells: HEK293T; settings: modulator alone; precluded analysis of glutamate potency and efficacy
[5] = 0.5μM JNJ-42153605, ([1 mM glutamate + modulator] - [1 mM glutamate]) × 100

- azi-CRD - ΔEfficacy, Mean ΔEfficacy (mGluR2 [1]; [5]): 43.306
- Hill slope of glutamate titration (mGluR2 [1]; azi-CRD sensor, + 0.5 μM modulator): 0.84
- Mean max response (normalized max ΔFRET) (mGluR2 [1]; azi-CRD, 1 mM glutamate + 0.5 μM modulator, normalized to 1 mM glutamate): 1.43
- Mean ΔPotency (mGluR2 [1]; azi-CRD, 0.5μM modulator, (([modulator + glutamate]EC50 – [glutamate] EC50)/[glutamate] EC50) × 100): -59.6016
- Mean normalized FRET response, azi-CRD PAM DRC (mGluR2 [1]; log[Glutamate] (M) -3): 1.433
- Mean normalized FRET response, azi-CRD PAM DRC (mGluR2 [1]; log[Glutamate] (M) -4.1549): 1.38
- Mean normalized FRET response, azi-CRD PAM DRC (mGluR2 [1]; log[Glutamate] (M) -4.52288): 1.273
- Mean normalized FRET response, azi-CRD PAM DRC (mGluR2 [1]; log[Glutamate] (M) -5): 1.071
- Mean normalized FRET response, azi-CRD PAM DRC (mGluR2 [1]; log[Glutamate] (M) -5.39794): 0.8185
- Mean normalized FRET response, azi-CRD PAM DRC (mGluR2 [1]; log[Glutamate] (M) -5.82391): 0.5065
- Mean normalized FRET response, azi-CRD PAM DRC (mGluR2 [1]; log[Glutamate] (M) -6.52288): 0.2306
- Mean normalized FRET response, azi-CRD PAM DRC (mGluR2 [1]; log[Glutamate] (M) -7): 0.112
- Mean normalized FRET response, azi-CRD PAM DRC (mGluR2 [1]; log[Glutamate] (M) -7.30103): 0.06166
- Mean normalized FRET response, azi-CRD PAM DRC (mGluR2 [1]; log[Glutamate] (M) -7.69897): 0
- SNAP-m2 - ΔEfficacy, Mean ΔEfficacy (mGluR2 [2]; [5]): 1.081
- SNAP-m2 FRET response (PAM DRC) (mGluR2 [2]; log[Glutamate] (M) -3): -1.011
- SNAP-m2 FRET response (PAM DRC), Mean (mGluR2 [2]; log[Glutamate] (M) -3): -1.011
- SNAP-m2 FRET response (PAM DRC), Mean (mGluR2 [2]; log[Glutamate] (M) -4.1549): -1.001
- SNAP-m2 FRET response (PAM DRC), Mean (mGluR2 [2]; log[Glutamate] (M) -4.52288): -0.9596
- SNAP-m2 FRET response (PAM DRC), Mean (mGluR2 [2]; log[Glutamate] (M) -5): -0.8006
- SNAP-m2 FRET response (PAM DRC), Mean (mGluR2 [2]; log[Glutamate] (M) -5.39794): -0.6293
- SNAP-m2 FRET response (PAM DRC), Mean (mGluR2 [2]; log[Glutamate] (M) -5.82391): -0.4469
- SNAP-m2 FRET response (PAM DRC) (mGluR2 [2]; log[Glutamate] (M) -6): -0.07432 and -0.0721
- SNAP-m2 FRET response (PAM DRC), Mean (mGluR2 [2]; log[Glutamate] (M) -6): -0.07321
- SNAP-m2 FRET response (PAM DRC), Mean (mGluR2 [2]; log[Glutamate] (M) -6.52288): -0.1478
- SNAP-m2 FRET response (PAM DRC) (mGluR2 [2]; log[Glutamate] (M) -7): -0.1024 and -0.08845 and 0 (3×)
- SNAP-m2 FRET response (PAM DRC), Mean (mGluR2 [2]; log[Glutamate] (M) -7): -0.03816
- SNAP-m2 FRET response (PAM DRC) (mGluR2 [2]; log[Glutamate] (M) -7.30103): -0.03839 and 0 (4×)
- SNAP-m2 FRET response (PAM DRC), Mean (mGluR2 [2]; log[Glutamate] (M) -7.30103): -0.00768
- SNAP-m2 FRET response (PAM DRC) (mGluR2 [2]; log[Glutamate] (M) -7.69897): 0
- SNAP-m2 FRET response (PAM DRC), Mean (mGluR2 [2]; log[Glutamate] (M) -7.69897): 0
- Mean max response (normalized max ΔFRET) (mGluR2 [2]; SNAP-m2, 1 mM glutamate + 0.5 μM modulator, normalized to 1 mM glutamate): 1.01
- Mean ΔPotency (mGluR2 [2]; SNAP-m2, 0.5μM modulator, (([modulator + glutamate]EC50 – [glutamate] EC50)/[glutamate] EC50) × 100): -64.9475
- Mean ΔEfficacy (mGluR2 [2]; SNAP-m2, 0.5μM modulator, ([1 mM glutamate + modulator] - [1 mM glutamate]) × 100): 1.081
- Hill slope of glutamate titration (mGluR2 [2]; SNAP-m2 sensor, + 0.5 μM modulator): –0.95
- azi-ECL2 - ΔEfficacy, Mean ΔEfficacy (mGluR2 [3]; [5]): -1.362
- Mean ΔPotency (mGluR2 [3]; 0.5μM modulator, (([modulator + glutamate]EC50 – [glutamate] EC50)/[glutamate] EC50) × 100): -56.3563
- Change in glutamate efficacy by FRET signal at ECL2 (mGluR2 [3]; azi-ECL2, 0.5 μM modulator): no change in efficacy
- Mean max response (normalized max ΔFRET) (mGluR2 [3]; azi-ECL2, 1 mM glutamate + 0.5 μM modulator, normalized to 1 mM glutamate): 0.99
- Hill slope of glutamate titration (mGluR2 [3]; azi-ECL2 sensor, + 0.5 μM modulator): 0.97
- Mean normalized azi-ECL2 FRET response (mGluR2 [3]; log[Glutamate] (M) -3): 0.9864
- Mean normalized azi-ECL2 FRET response (mGluR2 [3]; log[Glutamate] (M) -4.1549): 0.9409
- Mean normalized azi-ECL2 FRET response (mGluR2 [3]; log[Glutamate] (M) -4.52288): 0.8615
- Mean normalized azi-ECL2 FRET response (mGluR2 [3]; log[Glutamate] (M) -5): 0.7669
- Mean normalized azi-ECL2 FRET response (mGluR2 [3]; log[Glutamate] (M) -5.39794): 0.6334
- Mean normalized azi-ECL2 FRET response (mGluR2 [3]; log[Glutamate] (M) -5.82391): 0.3885
- Mean normalized azi-ECL2 FRET response (mGluR2 [3]; log[Glutamate] (M) -6.52288): 0.08595
- Mean normalized azi-ECL2 FRET response (mGluR2 [3]; log[Glutamate] (M) -7): 0.01271
- Mean normalized azi-ECL2 FRET response (mGluR2 [3]; log[Glutamate] (M) -7.30103): 0
- Mean normalized azi-ECL2 FRET response (mGluR2 [3]; log[Glutamate] (M) -7.69897): 0
- Effect of modulator itself on intracellular calcium flux (mGluR2 [4]): Direct activation of mGluR2
Structure (SMILES): FC(F)(F)c1c(N2CCC(c3ccccc3)CC2)ccn2c(CC3CC3)nnc12 [JNJ-42153605, 3-cyclopropylmethyl-7-(4-phenylpiperidin-1-yl)-8-trifluoromethyl[1,2,4]triazolo[4,3-a]pyridine]
- azi-CRD - ΔEfficacy, individual cell responses (mGluR2 [1]; 0.5μM JNJ-42153605, single cells): 82.2727 and 42.4779 and 50.5102 and 41.4773 and 23.5294 and 12.5265 and 26.2467 and 67.4074
- Live-cell FRET max response normalized to 1mM glutamate (mGluR2 [1]; azi-CRD sensor, Glutamate + 0.5μM JNJ-42153605, individual values (N=8)): 1.235 and 1.125 and 1.262 and 1.674 and 1.823 and 1.425 and 1.5051 and 1.415
- ΔPotency, individual cell (mGluR2 [1]; azi-CRD, 0.5μM modulator, calculated from individual cell responses): -88.5847 and -77.2559 and -86.9416 and -84.6067 and -90.4873 and -15.0698 and -44.7131 and -29.6276 and 9.8556
- SNAP-m2 FRET response (PAM DRC) (mGluR2 [2]; log[Glutamate] (M) -4.1549): -1.026 and -1.036 and -0.9975 and -0.9514 and -0.995
- SNAP-m2 FRET response (PAM DRC) (mGluR2 [2]; log[Glutamate] (M) -4.52288): -1.0364 and -1.036 and -1.011 and -0.8324 and -0.8825
- SNAP-m2 FRET response (PAM DRC) (mGluR2 [2]; log[Glutamate] (M) -5): -1.011 (2×) and -0.9177 and -0.5203 and -0.5436
- SNAP-m2 FRET response (PAM DRC) (mGluR2 [2]; log[Glutamate] (M) -5.39794): -0.9084 and -0.9097 and -0.7581 and -0.2676 and -0.3028
- SNAP-m2 FRET response (PAM DRC) (mGluR2 [2]; log[Glutamate] (M) -5.82391): -0.7293 and -0.6949 and -0.532 and -0.1338 and -0.1442
- SNAP-m2 FRET response (PAM DRC) (mGluR2 [2]; log[Glutamate] (M) -6.52288): -0.2853 and -0.2653 and -0.1596 and 0 and -0.02884
- ΔPotency, individual cell responses (mGluR2 [3]; 0.5μM modulator, single cells, (([modulator + glutamate]EC50 – [glutamate] EC50)/[glutamate] EC50) × 100): -56.3361 and -69.1679 and -73.0287 and -52.3819 and -40.5992 and -58.985 and -50.7357 and -45.7659 and -53.2747 and -65.0568 and -56.2788 and -59.6269 and -60.7335 and -44.1256 and -58.5158 and -54.4905 and -58.9548
- ΔEfficacy, individual cell responses (mGluR2 [3]; 0.5μM modulator, single cells, ([1 mM glutamate + modulator] - [1 mM glutamate]) × 100): -2.941 and 0.7843 and -9.091 and 0.4875 and -2.828 and 1.987 and -3.4754 and -3.284 and -3.415 and -12.5737 and -5.278 and 16.4947 and 5.4247
